# Assay results from patent US6603023B2 (priority 1996, dated 2003).
# Values joined by “and” are separate entries in the source; they are usually repeats but may differ in a detail not shown here. Equal entries are not always repeated. Structures can show the parent of a compound that is named as a salt. Where two headings read alike, the source gives them in different places. Marks after values point to notes of the source that are not given here.
# Assays:
# [1] = ester bond
# [2] = test system: CCRF-CEM human T-cell acute lymphoblastic leukemia cell line; test: XTT cytotoxicity (cell growth inhibition), CCRF-CEM
# Outline: (§1)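 Cells seeded at 5×10^4 cells/mL in RPMI-1640 + 10% heat-inactivated FBS, 37 °C/5% CO2; resistant lines cultured continuously with selecting agent. 72 h drug incubation. XTT (1 mg/mL) mixed with PMS to 0.025 mM PMS, 4 h, read 450 nm/630 nm.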
# [3] = test system: P388/Adr; test: cells; type: cell-based, murine; conditions: for IC50: 72 h
# Method: (§2) The drug-resistant cell lines were continuously cultured in the presence of the selecting agent, AD, DX, VBL or VM to maintain the drug resistant phenotypes. […] All cells were cultured in RPMI 1640-10% FBS at 37° C. 5% CO2 (see below).
# (§3) The cells were cultured at an initial density of 5×10^4 cells/mL. They were maintained in a 5% CO2-humidified atmosphere at 37° C. in RPMI-1640 medium (GIBCO-BRL, Gaithersburg, Md.) containing penicillin (100 U/mL), streptomycin ([…]) (GIBCO-BRL) and 10% heat inactivate fetal bovine serum. Culture for cell suspension (such as for CCRF-CEM, P388 and sublines), were performed by the XTT-microculture tetrazonium method (Scudiero, D. A. et al., Cancer Res. 1988, 48, 4827-4833) in duplicate in 96-well microtiter plates.
# (§4) 2′,3′-Bis(methoxy-4-nitro-5-sufophenyl)-5-[(phenylamino)carbonyl]2H-tetrazolium hyudroxide (XTT) was prepared at 1 mg/mL in prewarmed (37° C.) medium without serum. Phenazine methosulfate (PMS) and fresh XTT were mixed together to obtain 0.025 mM PMS-XTT solution (25 μL of the stock 5 mM PMS was added per 5 mL of 1 mg/mL XTT). Following a 72 h incubation, 50 μL of the assay aliquots were added to each well of the cell culture. After incubation at 37° C. for 4 h, absorbance at 450 nm and 630 nm was measured with a microplate reader (EL340, Bio-Tek Instruments, Inc., Winooski, Vt.).
# [4] = test system: human neuroblastoma SK-N-As; test: SRB cytotoxicity, SK-N-As; type: cell-based; conditions: 72 h
# Method: (§5) The DC-3F hamster lung fibroblast cell line and its actinomycin D-selected sublines (DC-3F/ADII and DC-3F/ADX) were obtained from the Memorial Sloan-Kettering Cancer Center (MSKCC).
# as §2
# (§6) The cytotoxicity of the drug toward the monolayer cell cultures (such as DC-3F, MCF-7, SK-N-As and sublines) was determined in 96-well microtiter plates by the SRB method as described by Skehan and co-workers (Skehan, P., et al., J. Natl. Cancer Inst. 1990, 82, 1107-1112) for measuring the cellular protein content. Cultures were fixed with trichloroacetic acid and then stained for 30 min with 0.4% suforhodamine B dissolved in 1% acetic acid. Unbound dye was removed by acetic acid washes, and the protein-bound dye was extracted with an unbuffered Tris base (tris(hydroxy-methyl)aminomethane) for determination of absorbance at 570 nm in a 96-well microtiter plate reader. The experiments were carried out in duplicate. Each run entailed six to seven concentrations of the tested drugs. Data were analyzed with the median-effect plot (Chou, T.-C. & Talalay, P. T. (1984) Adv. Enzyme Regul. 22, 27-55) using a previously described computer program (Chou, J., & Chou T.-C. 1987, Dose-effect analysis with microcomputers: Quantitation of ED50, synergism, antagonism, low-dose risk, reception-ligand binding and enzyme kinetics, IBM-PC software and manual, Biosoft, Cambridge, U.K.).
# [5] = test system: DC-3F hamster lung fibroblast cell line; test: SRB cytotoxicity, DC-3F; type: cell-based
# Outline: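 Monolayer cultures grown in RPMI 1640-10% FBS at 37 °C, 5% CO2, with resistant sublines kept under their selecting agent. Cytotoxicity determined by SRB protein staining (TCA fixation, absorbance 570 nm) in duplicate at six to seven drug concentrations. ED50 obtained by median-effect plot analysis.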
# [6] = test system: human mammary carcinoma MX-1 xenograft
# Method: (§7) DMSO was used as a vehicle for epothilones. Each mouse received ≦40 μL DMSO in all experiments.
# (§8) Athymic nude mice (nu/nu) were used for MX-1 and MCF-7/Adr human mammary carcinoma xenografts. Mice were obtained from Taconic Laboratory Animals and Service (Germantown, N.Y.: outbred, Swiss background).
# [7] = test system: MCF-7/Adr; test: cells; type: cell-based, human; conditions: for IC50: 72 h
# Method: Cultures were fixed with trichloroacetic acid and then stained for 30 min with 0.4% suforhodamine B dissolved in 1% acetic acid. Unbound dye was removed by acetic acid washes, and the protein-bound dye was extracted with an unbuffered Tris base (tris(hydroxy-methyl)aminomethane) for determination of absorbance at 570 nm in a 96-well microtiter plate reader. The experiments were carried out in duplicate. Each run entailed six to seven concentrations of the tested drugs.
# [8] = test system: CCRF-CEM/Taxol®; test: cells; type: cell-based, human; conditions: for IC50: 72 h
# Outline: as §1
# [9] = test system: CCRF-CEM/VBL100; test: cells; type: cell-based, human
# Outline: as §1
# [10] = test system: CCRF-CEM/VM1; test: cells; type: cell-based, human
# Outline: as §1
# [11] = test system: murine leukemic P388/0; test: XTT cytotoxicity, P388/0; type: cell-based
# Method: as §5, §2, §3, §4
# [12] = in vivo; conditions: male, athymic nude (nu/nu), outbred, Swiss background, mouse, in vivo, ip
# Method: as §7, §8
# [13] = test system: MDR human mammary adenocarcinoma MCF-7/Adr xenograft; test: in vivo
# Method: as §7, §8
# [14] = test system: DC-3F/ADX; test: cells; type: cell-based, hamster
# Outline: (§9)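 Hamster lung fibroblast DC-3F sublines selected with actinomycin D (ADII moderate, ADX very strong MDR), maintained under selecting agent in RPMI 1640-10% FBS at 37° C. Monolayers exposed to six to seven drug concentrations in duplicate, TCA-fixed, stained with 0.4% SRB; absorbance 570 nm, analyzed by median-effect plot.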
# [15] = test system: SK-N-FI; test: cells; type: cell-based, human; conditions: for IC50: 72 h
# Method: as §2, §6
# [16] = test system: MCF-7; test: SRB cytotoxicity, MCF-7; type: cell-based, human
# Method: as §6
# [17] = test system: DC-3F/ADII; test: SRB cytotoxicity, DC-3F/ADII; type: cell-based, hamster; conditions: Table 3; read-out: IC50
# Outline: as §9
# [18] = Homo sapiens, CCRF-CEM, 72 h, Table 1A, XTT
# [19] = male, athymic nude (nu/nu), outbred, Swiss background, mouse, in vivo
# [20] = high doses: Taxol 12, Adriamycin 3, Camptothecin 3.0 mg/kg i.p. day 8,10,12,14,16
# [21] = Table 1C, SRB, 72 h, read-out: IC50
# [22] = Table 1A, XTT, 72 h, read-out: IC50
# [23] = Table 6, single determinations, read-out: IC50
smiles,measurement,setting,value
C/C(=C\c1csc(C)n1)[C@@H]1C/C=C\CCCC[C@H](O[Si](C)(C)C(C)(C)C)[C@@H](C)C(=O)C(C)(C)[C@@H](O[Si](C)(C)C(C)(C)C)CC(=O)O1,"ring closure, yield of all isomers","[1]; from C/C(=C\c1csc(C)n1)[C@@H](O)C/C=C\CCCC[C@H](O[Si](C)(C)C(C)(C)C)[C@@H](C)C(=O)C(C)(C)[C@H](CC(=O)O)O[Si](C)(C)C(C)(C)C, DCC/DMAP/DMAP.HCl, CHCl3, 0.32 mM, 80.0 °C, 20.0 h",75%
CC[Si](CC)(CC)O[C@H]1CC(=O)O[C@H](/C(C)=C/c2csc(C)n2)C/C=C(/C)CCC[C@H](C)[C@H](OC(=O)OCC(Cl)(Cl)Cl)[C@@H](C)C(=O)C1(C)C,"ring closure, yield of all isomers","[1]; from CC[Si](CC)(CC)O[C@@H](CC(=O)O)C(C)(C)C(=O)[C@H](C)[C@@H](OC(=O)OCC(Cl)(Cl)Cl)[C@@H](C)CCC/C(C)=C\C[C@H](O)/C(C)=C/c1csc(C)n1, 2,4,6-trichlorobenzoyl chloride / Et3N / DMAP, toluene, 0.79 mM, 25.0 °C, 3.5 h",78%
same,"ring closure, yield of all isomers","[1]; from CC[Si](CC)(CC)O[C@@H](CC(=O)O)C(C)(C)C(=O)[C@H](C)[C@@H](OC(=O)OCC(Cl)(Cl)Cl)[C@@H](C)CCC/C(C)=C\C[C@H](O)/C(C)=C/c1csc(C)n1, 2,4,6-trichlorobenzoyl chloride/Et3N/DMAP, toluene, 1.32 mM, 25.0 °C, 3.75 h",78%
"COc1cccc2c1C(=O)c1c(O)c3c(c(O)c1C2=O)C[C@@](O)(C(=O)CO)C[C@@H]3O[C@H]1C[C@H](N)[C@H](O)[C@H](C)O1 [Adriamycin, doxorubicin or adriamycin HCl]",IC50,[2]; [18],36 nM
same,IC50,"[3]; Mus musculus, P388/ADR",2650 nM
same,IC50,"[4]; Homo sapiens, SK-N-AS",77 nM
same,IC50,"[5]; Mesocricetus auratus, DC3F, 72 h, Table 1C, SRB",18 nM
same,Tumor Disappearance,"[6]; 2 mg/kg i.p. d8,10,12,14,16",1/10
same,Tumor Disappearance,"[6]; 3 mg/kg i.p. d8,10,12,14,16",4/6
same,tumor volume reduction,[6]; adriamycin 2 mg/kg i.p. Q2Dx5 from day 8,28%
same,lethality,[6]; [19],4/6
same,lethality (mice died of toxicity),[6]; [19],1/10
same,IC50,"[7]; Homo sapiens, NCI/ADR-RES",216 nM
same,IC50,"[8]; Homo sapiens, CCRF-CEM",82 nM
same,IC50,[9]; [18],1740 nM
same,IC50,[10]; [18],128 nM
same,IC50,"[11]; Mus musculus, P388, 72 h",5.5 nM
same,LD50,[12],3 mg/kg
same,tumor growth suppression,[13]; DX 2 mg/kg,slight growth suppression
same,"Average Tumor Volume (T/C), Day 11",[13]; [20],0.66 T/C
same,"Average Tumor Volume (T/C), Day 13",[13]; [20],0.83 T/C
same,"Average Tumor Volume (T/C), Day 15",[13]; [20],0.57 T/C
same,"Average Tumor Volume (T/C), Day 17",[13]; [20],0.53 T/C
same,lethality,[13]; [19],3/6
same,tumor size reduction,"[13]; mouse, in vivo",22%
same,Average Tumor Size (T/C),"[13]; mouse, in vivo, HCl",0.78 and 0.70 and 0.68 and 0.84 and 0.53 and 0.66 and 0.83 and 0.57
same,IC50,"[14]; DC3F/ADX, 72 h, Table 1C, SRB",2240 nM
same,IC50,"[15]; Homo sapiens, SK-N-FI",1420 nM
same,IC50,"[16]; Homo sapiens, MCF7, 72 h",57 nM
"C/C(=C\c1csc(C)n1)[C@@H]1C/C=C\CCC[C@H](C)[C@H](O)[C@@H](C)C(=O)C(C)(C)[C@@H](O)CC(=O)O1 [Desoxyepothilone A, desoxyepothilone A]",IC50,[17],19.8 nM
same,IC50,[2],22 nM
same,IC50,"[2]; Table 1, XTT",22 nM
same,IC50,"[2]; Table 1A, XTT, 72 h",22 nM
same,IC50,[2]; Table 2,2 nM
same,IC50,"[2]; Table 6, single determinations",22 nM
same,IC50,"[2]; Table 7, CEM",22 nM
same,IC50,"[2]; read-out: IC50 (A), Table 2A, parent cell line",22 nM
same,folds of resistance (IC50 ratio vs parent cell line),"[3]; Table 1C, P388/Adr vs P388/O",(0.59x)
same,IC50,"[3]; Table 1C, XTT, read-out: IC50",12.5 nM
same,IC50,"[4]; Table 1C, SRB, read-out: IC50",73 nM
same,IC50,[5]; [21],11 nM
same,IC50,"[5]; Table 3, read-out: IC50",10.6 nM
same,folds of resistance (IC50 ratio vs parent cell line),"[7]; Table 1C, MCF-7/Adr vs MCF-7",(4.5x)
same,IC50,"[7]; Table 1C, SRB, read-out: IC50",144 nM
same,(C)/(A) IC50 ratio,"[8]; Table 1A, CCRF-CEM/Taxol vs CCRF-CEM",0.7
same,IC50,"[8]; Table 1A, XTT, read-out: IC50",15 nM
same,IC50,"[9]; Table 1, XTT, read-out: IC50",12 nM
same,(B)/(A) IC50 ratio,"[9]; Table 1A, CCRF-CEM/VBL100 vs CCRF-CEM",0.55
same,IC50,[9]; [22],12 nM
same,IC50,"[9]; Table 2, CCRF-CEM/VLB, read-out: IC50",12 nM
same,"(B)/(A) ratio (fold resistance >1, collateral sensitivity <1)",[9]; Table 2A,(0.55)^b
same,IC50,"[9]; Table 2A, MDR cell line, read-out: IC50 (B)",12 nM
same,IC50,[9]; [23],12 nM
same,IC50,"[9]; Table 7, CEM/VBL, read-out: IC50",12 nM
same,IC50,[9]; read-out: IC50,12 nM
same,IC50,"[10]; Table 1, XTT, read-out: IC50",13 nM
same,(D)/(A) IC50 ratio,"[10]; Table 1A, CCRF-CEM/VM1 vs CCRF-CEM",0.59
same,IC50,[10]; [22],13 nM
same,IC50,"[10]; Table 2, CCR-CEM/VM-1, read-out: IC50",13 nM
same,"(C)/(A) ratio (fold resistance >1, collateral sensitivity <1)",[10]; Table 2A,(0.59)^b
same,IC50,"[10]; Table 2A, Topo II gene mutated cell line, read-out: IC50 (C)",13 nM
same,IC50,[10]; [23],13 nM
same,IC50,"[11]; Table 1C, XTT, 72 h, read-out: IC50",21.3 nM
same,folds of resistance (IC50 ratio vs parent cell line),"[14]; Table 1C, DC-3F/ADX vs DC-3F",(3.9x)
same,IC50,[14]; [21],42 nM
same,IC50,"[14]; Table 3, read-out: IC50",42 nM
same,folds of resistance (IC50 ratio vs parent cell line),"[15]; Table 1C, SK-N-FI vs SK-N-As",(3.1x)
same,IC50,"[15]; Table 1C, SRB, read-out: IC50",223 nM
same,IC50,[16]; [21],32 nM
